In brackets after ≈: the same amount, converted by molar mass. Values belong to the molecule of their own block, whether it stands above or below them.
Key:
[1] = Dynamic surface tension, maximum bubble pressure method (Lauda MPT-2); format: physicochemical
Protocol: Dynamic surface tension can be measured using the maximum bubble pressure method. Various commercial instruments are available for measuring dynamic surface tension by the maximum bubble pressure method, for example the Lauda MPT-2 maximum bubble pressure instrument. The dynamic surface tension at 40msecs is determined from the maximum pressure in a bubble blown from a capillary inserted into a surfactant solution, for a bubble surface lifetime of 40msecs.
The dynamic surface tension measurements were carried out with a Lauda MPT-2 maximum bubble pressure tensiometer. The dynamic surface tension at 40 msecs was determined from the maximum pressure in a bubble blown from a capillary inserted into a surfactant solution, for a bubble surface lifetime of 40 msecs. The dynamic surface tensions were determined for solutions containing 0.1%, 0.2% or 0.5% by weight of the second adjuvant in deionised water at 20°C. For comparison, the dynamic surface tension of a 0.5% by weight solution of 2-ethylhexyl amine 8EO adjusted to pH4 with dilute hydrochloric acid (to protonate the amine) was also determined at 20°C.

Avena fatua (AVEFA) = assay: Field efficacy test of potassium glyphosate with adjuvants; format: in vivo; conditions: potassium glyphosate + 0.2% adjuvant, mean across 100, 200, 400 and 600 g glyphosate acid/ha, 33 days after application
Description: (§1) Potassium glyphosate, in combination with the adjuvants specified below in Table 3, was applied to Lolium perenne (LOLPE), Avena fatua (AVEFA) and Chenopodium album (CHEAL) drilled as rows in the field, at a spray application volume of […]. Application rates were 100, 200, 400 and 600 g glyphosate acid/ha and each treatment was replicated 3 times. Data (mean of the three replicates and across all rates) is presented for a visual assessment of % control carried out 33 days after application, where 0 = unaffected and 100% = complete kill Table 3.

[2] = test system: Chenopodium album (CHEAL); assay: as above; format: in vivo; conditions: potassium glyphosate + 0.2% adjuvant, mean across 100, 200, 400 and 600 g glyphosate acid/ha, 33 days after application
Description: as §1

Lolium perenne (LOLPE) = assay: as above; format: in vivo; conditions: potassium glyphosate + 0.2% adjuvant, mean across 100, 200, 400 and 600 g glyphosate acid/ha, 33 days after application
Description: as §1

[3] = test system: Chenopodium album (CHEAL); assay: Glass-house comparative efficacy test of potassium glyphosate with adjuvants; format: in vivo; conditions: potassium glyphosate 240 g acid equivalent/ha, 21 days after treatment
Protocol: (§2) Potassium glyphosate was applied at 240 g glyphosate acid equivalent/ha to Chenopodium album (CHEAL), Echinochloa crus-galli (ECHCG) and Sorgham halepense (SORHA) plants grown in the glass-house. All treatments were made up in deionised water and applied using a tracksprayer with a 11002 nozzle at a spray application volume of […]. All treatments were replicated 4 times. After spraying the plants were laid out in a glass-house and maintained at a temperature of 24°C by day and 16°C by night. The Agrimul PG2067 and Synperonic PEL62 adjuvants were used in a proportion 0.2% w/v. The adjuvant 2-ethylhexyl amine 8EO was used at both 0.2%w/v and 0.3%w/v. The adjuvant Sodium dodecyl sulphate was used in a proportion of 0.3%w/v. When applied as binary blends all adjuvants were used in a proportion of 0.1%w/v except Sodium dodecyl sulphate which was applied at 0.2%w/v. A visual assessment of % control, where 0=unaffected and 100=complete kill, was carried out 21 days after treatment.

[4] = test system: Echinochloa crus-galli (ECHCG); assay: as above; format: in vivo; conditions: potassium glyphosate 240 g acid equivalent/ha, 21 days after treatment
Protocol: as §2

[5] = test system: Sorgham halepense (SORHA); assay: as above; format: in vivo; conditions: potassium glyphosate 240 g acid equivalent/ha, 21 days after treatment
Protocol: as §2

Daphnia magna = Daphnia magna immobilisation ecotoxicity test; format: in vivo
Protocol: The following ecotoxicity results were obtained for various alkyl amine alkoxylates using the following test method. First instar Daphnia magna (less than 24 hrs old), obtained from cultures were exposed to a range of concentrations of the test amine ethoxylates in hard blended water (160-180 mg CaCO3 /litre). 10 Daphnia magna were added to each vessel which were then placed at ∼20 degrees C on a 16/8 light/dark day. Organisms were assessed at 24 and 48 hours, the effect observed being immobilisation after gentle agitation. The EC50 values were calculated using a statistical package, the 95% confidence limits are quoted in brackets.
The amine ethoxylates were tested in the presence of potassium glyphosate in order to protonate the amine. […] The remaining adjuvants were tested in the absence of potassium glyphosate. It can be seen that the ecotoxicity of the alkyl amine alkoxylates 3 to 6 falling within the definition of the present invention was very much lower that that for the nearest previously known compounds 1 to 2. It will be appreciated that the higher the EC50 value, the lower the toxicity.

Dynamic Surface Tension at 40 msecs ([1]; 0.5% by weight solution adjusted to pH4 with dilute hydrochloric acid, 20°C): 64 mNm^-1
Molecule: 2-ethylhexyl amine 8EO [Number 3]
visual assessment of % control AVEFA (Avena fatua (AVEFA)): 68%
visual assessment of % control CHEAL [2]: 74%
visual assessment of % control LOLPE (Lolium perenne (LOLPE)): 47%
visual assessment of % control CHEAL ([3]; single adjuvant 0.2%): 59%
visual assessment of % control ECHCG ([4]; single adjuvant 0.2%): 63%
visual assessment of % control ECHCG ([4]; single adjuvant 0.3%): 64%
visual assessment of % control SORHA ([5]; single adjuvant 0.2%): 74%
visual assessment of % control SORHA ([5]; single adjuvant 0.3%): 75%

Dynamic Surface Tension at 40 msecs ([1]; 0.2% by weight in deionised water at 20°C): 53 mNm^-1
Dynamic Surface Tension at 40 msecs ([1]; 0.5% by weight in deionised water at 20°C): 39 mNm^-1
Molecule: CCCCCCCCCCCCOS(=O)(=O)[O-].[Na+] [Number 9, Sodium dodecyl sulphate, reference compound]
visual assessment of % control ECHCG ([4]; single adjuvant 0.3%): 78%
visual assessment of % control SORHA ([5]; single adjuvant 0.3%): 76%

Molecule: CCCCCCCCCCCCOS(=O)(=O)O [Number 9]
EC50 (Daphnia magna; Daphnia magna, 48 hours, immobilisation, tested in the absence of potassium glyphosate, 95% confidence limits in brackets, read-out: Daphnia toxicity EC50): 16 µg/mL (≈ 60.1 µM)

Molecule: O=C(O)CNCP(=O)([O-])O.[K+] [Potassium glyphosate, reference compound]
contribution to the daphnia toxicity (Daphnia magna; potassium glyphosate itself): does not make a significant contribution
visual assessment of % control CHEAL ([3]; no adjuvant): 3%
visual assessment of % control ECHCG ([4]; no adjuvant): 48%
visual assessment of % control SORHA ([5]; no adjuvant): 21%

Source: patent EP1326493B1, “AGROCHEMICAL COMPOSITION CONTAINING ACTIVITY-ENHANCING ADJUVANTS” (Syngenta Limited, priority 2000, dated 2002)
